How the values were obtained:
[1] = tested on: beet armyworm (BAW; Spodoptera exigua: Lepidoptera); assay: 128-well diet tray assay on beet armyworm (BAW 50); format: in vivo; conditions: 144 h, 50 ug/cm^2 of test compound on diet, second instar BAW larvae, 25° C., six days, average of eight wells, read-out: BAW 50 (percent mortality)
Experimental: (§1) Bioassays on beet armyworm (BAW; Spodoptera exigua: Lepidoptera) were conducted using either a 96-well microtiter plate-based high throughput (HTS) bioassay or a 128-well diet tray assay. The HTS assay is a based on a modification of Lewer et al. J. Nat. Prod. 2006, 69, 1506. BAW eggs were placed on top of artificial diet (100 microliters (μL)) in each well of 96-well microtiter plate. The diet was pretreated with test compounds (12 micrograms (μg) dissolved in 30 μL of DMSO-acetone-water mixture) layered on top of the diet using a liquid handling system and then allowed to dry for several hours. Infested plates were then covered with a layer of sterile cotton batting and the plate lid, and then held in the dark at 29° C. Mortality was recorded at 6 days (d) post-treatment. Each plate had six replicates. The percent mortality was calculated from the average of the six replicates. In the case of the 128-well diet assay, three to five second instar BAW larvae were placed in each well (3 mL) of the diet tray that had been previously filled with 1 mL of artificial diet to which 50 ug/cm^2 of the test compound (dissolved in 50 μL of 90:10 acetone/water mixture) had been applied (to each of eight wells) and then allowed to dry. Trays were covered with a clear self-adhesive cover, and held at 25° C., 14:10 light:dark for six days. Percent mortality was recorded for the larvae in each well; activity in the eight wells was then averaged. In Table 2 under both the BAW HTS and the BAW 50 headings, an “A” means that the compound was tested and at least 50 percent mortality was observed whereas, “B” means that either (1) the compound was tested and less than 50 percent mortality was observed or (2) the compound was not tested.

[2] = tested on: beet armyworm (BAW; Spodoptera exigua: Lepidoptera); assay: 96-well microtiter plate-based high throughput (HTS) bioassay on beet armyworm (BAW HTS); format: in vivo; conditions: 96-well plate; 12 μg test compound on 100 μL diet; BAW eggs; 29° C.; 6 days post-treatment; average of six replicates
Experimental: as §1

| Compound | mortality at 50 µg/cm2 [1] | BAW HTS (percent mortality) [2] |
| --- | --- | --- |
| CO[C@@H]1[C@@H](OC)[C@H](C)O[C@@H](OC2Cc3ccc(-c4ccnc(-c5ccc(Cl)cc5)n4)cc3C2)[C@@H]1OC (stereo partly drawn) [Compound 1C, 2-(4-Chlorophenyl)-4-[2-((2R,3R,4R,5S,6S)-3,4,5-trimethoxy-6-methyl-tetrahydropyran-2-yloxy)-indan-5-yl]-pyrimidine] | > 50% | B (either (1) the compound was tested and less than 50 percent mortality was observed or (2) the compound was not tested) |
| CO[C@@H]1[C@@H](OC)[C@H](C)O[C@@H](OC2Cc3ccc(-c4ccnc(-c5ccc(Cl)cc5Cl)n4)cc3C2)[C@@H]1OC (stereo partly drawn) [Compound 2C, 2-(2,4-Dichlorophenyl)-4-[2-((2R,3R,4R,5S,6S)-3,4,5-trimethoxy-6-methyl-tetrahydropyran-2-yloxy)-indan-5-yl]-pyrimidine] | < 50% | A (the compound was tested and at least 50 percent mortality was observed) |
| CO[C@@H]1[C@@H](OC)[C@H](C)O[C@@H](OC2Cc3ccc(-c4ccnc(-c5cccc(C(F)(F)F)c5)n4)cc3C2)[C@@H]1OC (stereo partly drawn) [Compound 3C, 2-(3-Trifluoromethylphenyl)-4-[2-((2R,3R,4R,5S,6S)-3,4,5-trimethoxy-6-methyl-tetrahydropyran-2-yloxy)-indan-5-yl]-pyrimidine] | > 50% | B (either (1) the compound was tested and less than 50 percent mortality was observed or (2) the compound was not tested) |
| CO[C@@H]1[C@@H](OC)[C@H](C)O[C@@H](OC2Cc3ccc(-c4ccnc(-c5ccc(C(F)(F)F)cc5)n4)cc3C2)[C@@H]1OC (stereo partly drawn) [Compound 4C, 2-(4-Trifluoromethylphenyl)-4-[2-((2R,3R,4R,5S,6S)-3,4,5-trimethoxy-6-methyl-tetrahydropyran-2-yloxy)-indan-5-yl]-pyrimidine] | > 50% | B (either (1) the compound was tested and less than 50 percent mortality was observed or (2) the compound was not tested) |
| COc1ccc(-c2nccc(-c3ccc4c(c3)CC(O[C@@H]3O[C@@H](C)[C@H](OC)[C@@H](OC)[C@H]3OC)C4)n2)cc1 (stereo partly drawn) [Compound 5C, 2-(4-methoxyphenyl)-4-[2-((2R,3R,4R,5S,6S)-3,4,5-trimethoxy-6-methyl-tetrahydropyran-2-yloxy)-indan-5-yl]-pyrimidine] | > 50% | A (the compound was tested and at least 50 percent mortality was observed) |
| CO[C@@H]1[C@@H](OC)[C@H](C)O[C@@H](OC2Cc3ccc(-c4ccnc(-c5cccnc5)n4)cc3C2)[C@@H]1OC (stereo partly drawn) [Compound 6C, 2-Pyridin-3-yl-4-[2-((2R,3R,4R,5S,6S)-3,4,5-trimethoxy-6-methyl-tetrahydropyran-2-yloxy)-indan-5-yl]-pyrimidine] | < 50% | B (either (1) the compound was tested and less than 50 percent mortality was observed or (2) the compound was not tested) |
| CO[C@@H]1[C@@H](OC)[C@H](C)O[C@@H](OC2Cc3ccc(-c4ccnc(-c5ccccc5)n4)cc3C2)[C@@H]1OC (stereo partly drawn) [Compound 7C, 2-Phenyl-4-[2-((2R,3R,4R,5S,6S)-3,4,5-trimethoxy-6-methyl-tetrahydropyran-2-yloxy)-indan-5-yl]-pyrimidine] | < 50% | B (either (1) the compound was tested and less than 50 percent mortality was observed or (2) the compound was not tested) |
| CO[C@@H]1[C@@H](OC)[C@H](C)O[C@@H](OC2Cc3ccc(-c4ccn(-c5ccc(C(F)(F)F)cn5)n4)cc3C2)[C@@H]1OC (stereo partly drawn) [Compound 8C, 5-trifluoromethyl-2-{3-[2-((2R,3R,4R,5S,6S)-3,4,5-trimethoxy-6-methyl-tetrahydropyran-2-yloxy)-indan-5-yl]-pyrazol-1-yl}-pyridine] | > 50% | A (the compound was tested and at least 50 percent mortality was observed) |
| CO[C@@H]1[C@@H](OC)[C@H](C)O[C@@H](OC2Cc3ccc(-c4ccn(-c5nnc(C(F)(F)F)s5)n4)cc3C2)[C@@H]1OC (stereo partly drawn) [Compound 9C, 2-trifluoromethyl-5-{3-[2-((2R,3R,4R,5S,6S)-3,4,5-trimethoxy-6-methyl-tetrahydropyran-2-yloxy)-indan-5-yl]-pyrazol-1-yl}-[1,3,4]thiadiazole] | > 50% | A (the compound was tested and at least 50 percent mortality was observed) |
| CO[C@@H]1[C@@H](OC)[C@H](C)O[C@@H](OC2Cc3ccc(-c4ccn(-c5ccc(OC(F)(F)C(F)(F)F)cc5)n4)cc3C2)[C@@H]1OC (some centres unmarked) [Compound 10C] | > 50% | A (the compound was tested and at least 50 percent mortality was observed) |

— US8383786B2, “Pesticidal compositions” (Dow AgroSciences, LLC., priority 2009, dated 2013)
